From article PMC11604048, “Constrained TACC3 peptidomimetics for a non-canonical protein–protein interface elucidate allosteric communication in Aurora-A kinase” (Chemical Science, 2024)
Like-named read-outs stand apart in the source and are kept apart here. Values belong to the compound of their own block, whether it stands above or below them. *1 amine or outer side, *2 acyl side, *3 side chain or, on linkers, in order; H or OH if unused. Where a SMILES comes first, the peptide text is derived from it. Bridges are numbered along the chain shown (N, C = ends). [ ]: non-standard residue; d: D form. Biphenyl(4,4'-CH2)2 = c1cc(-c2ccc(C[*:2])cc2)ccc1C[*:1]; Maleimide(3,4-diyl) = O=C1NC(=O)C([*:2])=C1[*:1]; Pro(trans-4-F) = O=C(O)[C@@H]1C[C@@H](F)CN1; Phe(4-Br) = N[C@@H](Cc1ccc(Br)cc1)C(=O)O

Target: T1, Aurora-A122-403-C290A/C393A (Homo sapiens, UniProt O14965, C290A/C393A)
T1 construct: Human Aurora-A kinase domain 122-403 wild-type or C290A/ C393A mutant; His tag (pET30TEV vector) (N, cleaved yes); made in house; host or cells: E. coli RIL, co-expressed with lambda phosphatase (Aurora-A); tracer by solid phase synthesis
T1 sequence (O14965 122-403 C290A/C393A): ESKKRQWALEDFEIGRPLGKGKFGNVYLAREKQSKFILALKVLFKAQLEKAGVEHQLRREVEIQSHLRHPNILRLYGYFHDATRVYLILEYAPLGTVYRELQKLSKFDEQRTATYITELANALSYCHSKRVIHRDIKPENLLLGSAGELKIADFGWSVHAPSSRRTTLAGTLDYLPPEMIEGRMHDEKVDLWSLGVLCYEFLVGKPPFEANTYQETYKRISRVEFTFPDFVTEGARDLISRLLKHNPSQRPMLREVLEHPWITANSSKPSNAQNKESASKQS
Assay: Competition FA assay against FAM-Ahx-TACC3 522-536 tracer
Assay type: binding

[1] = as E1, oxidised (disulfide) species made in situ from 10 mM stock in aqueous DMSO 33% v/v, air, overnight, WT control (+DMSO) given the same DMSO incubation, mean ± SD, n = 3, read-out: IC50 (ox)
[2] = as E1, Table S3 (mal): maleimide-constrained species, WT value is an individual replica control assay, mean ± SD, n = 3, SD, read-out: IC50 (mal)
[3] = as E1, free-sulfhydryl (reduced) species, DTT 5 mM in buffer, WT control (+DTT), mean ± SD, n = 3, read-out: IC50 (red)
[4] = as E1, Table S3 (mal): maleimide-constrained species, WT value is an individual replica control assay, mean ± SD, n = 3, read-out: IC50 (mal)

SMILES: CC(=O)N[C@@H](CCC(=O)O)C(=O)N[C@@H](CCC(=O)O)C(=O)N[C@@H](CO)C(=O)N[C@@H](Cc1ccccc1)C(=O)N[C@@H](CCCNC(=N)N)C(=O)N[C@@H](CC(=O)O)C(=O)N1CCC[C@H]1C(=O)N[C@@H](C)C(=O)N[C@@H](CCC(=O)O)C(=O)N[C@H](C(=O)N[C@@H](CC(C)C)C(=O)N[C@H]1CSSC[C@@H](C(N)=O)NC(=O)CNC(=O)[C@H]([C@@H](C)O)NC1=O)C(C)C [TACC3 522-536 G533C/A536C (ox)] (Ac-EESFRDPAEVLCTGC-NH2; disulfide 12-15)
IC50 [1]: ≥ 500 µM

SMILES: CC(=O)N[C@@H](CCC(=O)O)C(=O)N[C@@H](CCC(=O)O)C(=O)N[C@@H](CO)C(=O)N[C@@H](Cc1ccccc1)C(=O)N[C@@H](CCCNC(=N)N)C(=O)N[C@@H](CC(=O)O)C(=O)N1CCC[C@H]1C(=O)N[C@@H](C)C(=O)N[C@@H](CCC(=O)O)C(=O)N[C@H](C(=O)N[C@H]1CSC2=C(SC[C@@H](C(=O)N[C@@H](C)C(N)=O)NC(=O)[C@H]([C@@H](C)O)NC(=O)CNC1=O)C(=O)NC2=O)C(C)C [TACC3 522-536 L532C/G535C (mal)] (Ac-EESFRDPAEVCGTCA-NH2; linker 11-14 via Maleimide(3,4-diyl))
IC50 [2]: 480 ± 60 µM

SMILES: CC(=O)N[C@H]1CSSC[C@@H](C(=O)N[C@@H](C)C(=O)N[C@@H](CCC(=O)O)C(=O)N[C@H](C(=O)N[C@@H](CC(C)C)C(=O)NCC(=O)N[C@H](C(=O)NCC(=O)N[C@@H](C)C(N)=O)[C@@H](C)O)C(C)C)NC(=O)[C@H](CC(=O)O)NC(=O)[C@H](CCCNC(=N)N)NC(=O)[C@H](Cc2ccccc2)NC(=O)[C@H](CO)NC(=O)[C@H](CCC(=O)O)NC1=O [TACC3 522-536 E522C/P528C (ox)] (Ac-CESFRDCAEVLGTGA-NH2; disulfide 1-7)
IC50 [1]: ≥ 500 µM

SMILES: CC(=O)N[C@@H](CC(C)C)C(=O)N[C@@H](CCC(=O)O)C(=O)N[C@@H](CC(C)C)C(=O)N[C@@H](CCCCN)C(=O)N[C@@H](CCC(=O)O)C(=O)N[C@@H](CCC(=O)O)C(=O)N[C@H]1CSCc2ccc(cc2)-c2ccc(cc2)CSC[C@@H](C(=O)N[C@H](C(=O)N[C@@H](CC(C)C)C(N)=O)C(C)C)NC(=O)[C@H](C)NC(=O)[C@@H]2C[C@@H](F)CN2C(=O)[C@H](CC(=O)O)NC(=O)[C@H](CCCNC(=N)N)NC(=O)[C@H](Cc2ccc(Br)cc2)NC1=O [TACC3 518-532-S/E-Bph-BrF/fP] (Ac-LELKEEC[Phe(4-Br)]RD[Pro(trans-4-F)]ACVL-NH2; linker 7-13 via Biphenyl(4,4'-CH2)2)
IC50 (SD, read-out: IC50): 16 ± 1 µM

SMILES: CC(=O)N[C@@H](CCC(=O)O)C(=O)N[C@@H](CCC(=O)O)C(=O)N[C@@H](CO)C(=O)N[C@@H](Cc1ccccc1)C(=O)N[C@@H](CCCNC(=N)N)C(=O)N[C@@H](CC(=O)O)C(=O)N1CCC[C@H]1C(=O)N[C@H]1CSC2=C(SC[C@@H](C(=O)NCC(=O)N[C@H](C(=O)NCC(=O)N[C@@H](C)C(N)=O)[C@@H](C)O)NC(=O)[C@H](C(C)C)NC(=O)[C@H](CCC(=O)O)NC1=O)C(=O)NC2=O [TACC3 522-536 A529C/L532C (mal)] (Ac-EESFRDPCEVCGTGA-NH2; linker 8-11 via Maleimide(3,4-diyl))
IC50 [2]: 483 ± 58 µM

SMILES: CC(=O)N[C@@H](CCC(=O)O)C(=O)N[C@@H](CCC(=O)O)C(=O)N[C@@H](CO)C(=O)N[C@@H](Cc1ccccc1)C(=O)N[C@@H](CCCNC(=N)N)C(=O)N[C@@H](CC(=O)O)C(=O)N1CCC[C@H]1C(=O)N[C@@H](C)C(=O)N[C@@H](CS)C(=O)N[C@H](C(=O)N[C@@H](CC(C)C)C(=O)N[C@@H](CS)C(=O)N[C@H](C(=O)NCC(=O)N[C@@H](C)C(N)=O)[C@@H](C)O)C(C)C [TACC3 522-536 E530C/G533C (red)] (Ac-EESFRDPACVLCTGA-NH2)
IC50 [3]: ≥ 500 µM

SMILES: CC(=O)N[C@@H](CCC(=O)O)C(=O)N[C@@H](CCC(=O)O)C(=O)N[C@@H](CO)C(=O)N[C@@H](Cc1ccccc1)C(=O)N[C@@H](CCCNC(=N)N)C(=O)N[C@@H](CC(=O)O)C(=O)N1CCC[C@H]1C(=O)N[C@@H](C)C(=O)N[C@H]1CSC2=C(SC[C@@H](C(=O)N[C@H](C(=O)NCC(=O)N[C@@H](C)C(N)=O)[C@@H](C)O)NC(=O)[C@H](CC(C)C)NC(=O)[C@H](C(C)C)NC1=O)C(=O)NC2=O [TACC3 522-536 E530C/G533C (mal)] (Ac-EESFRDPACVLCTGA-NH2; linker 9-12 via Maleimide(3,4-diyl))
IC50 [2]: 223 ± 17 µM

SMILES: CC(=O)N[C@@H](CCC(=O)O)C(=O)N[C@@H](CCC(=O)O)C(=O)N[C@@H](CO)C(=O)N[C@@H](Cc1ccccc1)C(=O)N[C@@H](CCCNC(=N)N)C(=O)N[C@@H](CC(=O)O)C(=O)N1CCC[C@H]1C(=O)N[C@@H](C)C(=O)N[C@@H](CCC(=O)O)C(=O)N[C@H](C(=O)N[C@@H](CC(C)C)C(=O)N[C@H]1CSC2=C(SC[C@@H](C(N)=O)NC(=O)CNC(=O)[C@H]([C@@H](C)O)NC1=O)C(=O)NC2=O)C(C)C [TACC3 522-536 G533C/A536C (mal)] (Ac-EESFRDPAEVLCTGC-NH2; linker 12-15 via Maleimide(3,4-diyl))
IC50 [4]: ≥ 500 µM

Second part, the compound after the results:

IC50 [1]: ≥ 500 µM
SMILES: CC(=O)N[C@@H](CCC(=O)O)C(=O)N[C@@H](CCC(=O)O)C(=O)N[C@@H](CO)C(=O)N[C@@H](Cc1ccccc1)C(=O)N[C@@H](CCCNC(=N)N)C(=O)N[C@@H](CC(=O)O)C(=O)N[C@H]1CSSC[C@@H](C(=O)N[C@@H](CC(C)C)C(=O)NCC(=O)N[C@H](C(=O)NCC(=O)N[C@@H](C)C(N)=O)[C@@H](C)O)NC(=O)[C@H](CCC(=O)O)NC(=O)[C@H](C)NC1=O [TACC3 522-536 P528C/V531C (ox)] (Ac-EESFRDCAECLGTGA-NH2; disulfide 7-10)

IC50 [1]: ≥ 500 µM
SMILES: CC(=O)N[C@@H](CCC(=O)O)C(=O)N[C@@H](CCC(=O)O)C(=O)N[C@@H](CO)C(=O)N[C@@H](Cc1ccccc1)C(=O)N[C@@H](CCCNC(=N)N)C(=O)N[C@@H](CC(=O)O)C(=O)N1CCC[C@H]1C(=O)N[C@@H](C)C(=O)N[C@@H](CCC(=O)O)C(=O)N[C@H]1CSSC[C@@H](C(=O)NCC(=O)N[C@@H](C)C(N)=O)NC(=O)CNC(=O)[C@H](CC(C)C)NC1=O [TACC3 522-536 V531C/T534C (ox)] (Ac-EESFRDPAECLGCGA-NH2; disulfide 10-13)

IC50 (SD, read-out: IC50): 184 ± 22 µM
SMILES: CC(=O)N[C@@H](CCC(=O)O)C(=O)N[C@@H](CCC(=O)O)C(=O)N[C@@H](CO)C(=O)N[C@@H](Cc1ccc(F)cc1)C(=O)N[C@@H](CCCNC(=N)N)C(=O)N[C@@H](CC(=O)O)C(=O)N1CCC[C@H]1C(=O)N[C@@H](C)C(=O)N[C@@H](CCC(=O)O)C(=O)N[C@H](C(=O)N[C@@H](CC(C)C)C(=O)NCC(=O)N[C@H](C(=O)NCC(=O)N[C@@H](C)C(N)=O)[C@@H](C)O)C(C)C [TACC3 522-536_(4-F)525F]

IC50 [3]: ≥ 500 µM
SMILES: CC(=O)N[C@@H](CCC(=O)O)C(=O)N[C@@H](CCC(=O)O)C(=O)N[C@@H](CO)C(=O)N[C@@H](Cc1ccccc1)C(=O)N[C@@H](CCCNC(=N)N)C(=O)N[C@@H](CC(=O)O)C(=O)N1CCC[C@H]1C(=O)N[C@@H](C)C(=O)N[C@@H](CCC(=O)O)C(=O)N[C@@H](CS)C(=O)N[C@@H](CC(C)C)C(=O)NCC(=O)N[C@@H](CS)C(=O)NCC(=O)N[C@@H](C)C(N)=O [TACC3 522-536 V531C/T534C (red)] (Ac-EESFRDPAECLGCGA-NH2)

IC50 (read-out: IC50): ≥ 500 µM
SMILES: CC(=O)N[C@@H](CCC(=O)O)C(=O)N[C@@H](CCC(=O)O)C(=O)N[C@@H](CO)C(=O)NC(C)(Cc1ccccc1)C(=O)N[C@@H](CCCNC(=N)N)C(=O)N[C@@H](CC(=O)O)C(=O)N1CCC[C@H]1C(=O)N[C@@H](C)C(=O)N[C@@H](CCC(=O)O)C(=O)N[C@H](C(=O)N[C@@H](CC(C)C)C(=O)NCC(=O)N[C@H](C(=O)NCC(=O)N[C@@H](C)C(N)=O)[C@@H](C)O)C(C)C (stereo partly drawn) [TACC3 522-536_(α-Me) -525F]

IC50 [1]: ≥ 500 µM
SMILES: CC(=O)N[C@@H](CCC(=O)O)C(=O)N[C@@H](CCC(=O)O)C(=O)N[C@@H](CO)C(=O)N[C@@H](Cc1ccccc1)C(=O)N[C@H]1CSSC[C@@H](C(=O)N[C@@H](CCC(=O)O)C(=O)N[C@H](C(=O)N[C@@H](CC(C)C)C(=O)NCC(=O)N[C@H](C(=O)NCC(=O)N[C@@H](C)C(N)=O)[C@@H](C)O)C(C)C)NC(=O)[C@@H]2CCCN2C(=O)[C@H](CC(=O)O)NC1=O [TACC3 522-536 R526C/A529C (ox)] (Ac-EESFCDPCEVLGTGA-NH2; disulfide 5-8)

IC50 [1]: ≥ 500 µM
SMILES: CC(=O)N[C@@H](CCC(=O)O)C(=O)N[C@@H](CCC(=O)O)C(=O)N[C@@H](CO)C(=O)N[C@@H](Cc1ccccc1)C(=O)N[C@@H](CCCNC(=N)N)C(=O)N[C@@H](CC(=O)O)C(=O)N1CCC[C@H]1C(=O)N[C@@H](C)C(=O)N[C@@H](CCC(=O)O)C(=O)N[C@H](C(=O)N[C@H]1CSSC[C@@H](C(=O)N[C@@H](C)C(N)=O)NC(=O)[C@H]([C@@H](C)O)NC(=O)CNC1=O)C(C)C [TACC3 522-536 L532C/G535C (ox)] (Ac-EESFRDPAEVCGTCA-NH2; disulfide 11-14)

IC50 [4]: ≥ 500 µM
SMILES: CC(=O)N[C@@H](CCC(=O)O)C(=O)N[C@@H](CCC(=O)O)C(=O)N[C@@H](CO)C(=O)N[C@@H](Cc1ccccc1)C(=O)N[C@@H](CCCNC(=N)N)C(=O)N[C@@H](CC(=O)O)C(=O)N[C@H]1CSC2=C(SC[C@@H](C(=O)N[C@@H](CC(C)C)C(=O)NCC(=O)N[C@H](C(=O)NCC(=O)N[C@@H](C)C(N)=O)[C@@H](C)O)NC(=O)[C@H](CCC(=O)O)NC(=O)[C@H](C)NC1=O)C(=O)NC2=O [TACC3 522-536 P528C/V531C (mal)] (Ac-EESFRDCAECLGTGA-NH2; linker 7-10 via Maleimide(3,4-diyl) (inferred))
